# Source: article PMC10419416, “Fighting Pseudomonas aeruginosa Infections: Antibacterial and Antibiofilm Activity of D-Q53 CecB, a Synthetic Analog of a Silkworm Natural Cecropin B Variant” (International Journal of Molecular Sciences, 2023)
# Non-standard residues stand in square brackets, D forms with d. Residues, ends and D or L forms follow the SMILES beside them. No end group written: not given here.
# Columns and labels:
# Assay type in all cases: cell-based, Pseudomonas aeruginosa
# [1] = tested on: P. aeruginosa biofilms (ATCC 25668); assay: Confocal live/dead staining of biofilm-embedded cells; settings: 1 h treatment with 1 MIC (2.2 µM) of 24 h-old biofilm; SYTO 9 / Propidium Iodide
# Experimental: Bacteria cells (1 × 10^6 cells/mL) were grown in Permanox four-wells chamber slide systems (1.8 cm^2/well; Nunc® Lab-Tek® Chamber Slide™ system) at 37 °C for 24 h without agitation to allow biofilm formation. After washing, biofilms were treated with 2.2 μM L- or D-Q53 CecB peptide for 1 h at 37 °C without agitation. Negative controls, treated with LB only, were followed in parallel.
# To visualize live/dead bacteria, samples were stained with 12. 5 μM SYTO™ 9 (Thermo Fisher Scientific) (green, total cells) and 70 μM Propidium Iodide (Merck) (red, dead cells) for 30 min. After washing with PBS, samples were mounted in VECTASHIELD® mounting medium (Vector Laboratories) and observed using a Leica TCS SP5 II confocal microscope, using a ×63 oil immersion objective and a digital magnification of ×3. Optical sections (Z-series) were taken at 0.13 μm intervals. For each condition, experiments were repeated at least twice.
# To detect bacteria (green), excitation and emission wavelengths were 488 and 500–530 nm, respectively. EPS was visualized using a 405 nm wavelength for excitation and 413–480 nm for emission (blue); to detect proteins or Propidium Iodide (red), a 543 nm wavelength for excitation and 590–610 nm for emission were used. Post-acquisition analyses were performed with Fiji (http://fiji.sc/wiki/index.php, downloaded on 4 April 2022). […]
# [2] = tested on: P. aeruginosa ATCC 25668 (lasI, rpoS, fimX, pslA, pelA, algD); assay: Real-time qPCR of genes involved in biofilm formation; settings: 20 h; 1/2 MIC L- or 1/4 MIC D-Q53 CecB; normalised to rplU
# Experimental: Bacteria were collected after centrifugation and stored in Trizol Reagent (Ambion, Waltham, MA, USA) at −80 °C, until use. Total RNA was extracted using the Direct-zol RNA MiniPrep kit (Zymo Research, Irvine, CA, USA). The complementary DNA (cDNA) was synthesized using the Maxima™ H Minus cDNA Synthesis Master Mix with dsDNase (Molecular biology, Thermo Scientific). Each qPCR reaction was performed in triplicate, using the GoTaq qPCR Master Mix (Promega, Madison, WI, USA) and a CFX96 Real-Time PCR Detection System (Bio-Rad, Hercules, CA, USA), following the manufacturer’s instructions. The amplification conditions were 95 °C 2 min, (15 s at 95 °C, 1 min at the appropriate annealing temperature Ta, as in Table 5) ×40 cycles. The rplU gene, coding the 50 S ribosomal protein, was used to normalize qPCR data as in [36]. Fold changes were calculated by the 2^−ΔΔCT analysis method.
# [3] = tested on: P. aeruginosa ATCC 27853, non-mucoid strain; assay: Degradation of pre-formed 24 h old biofilm, crystal violet; settings: for mean decrement in biomass of pre-formed biofilm: 1 h treatment of 24 h old biofilm
# Experimental: (§1) One hundred μL of bacteria (1 × 10^6 cells/mL), derived from a fresh ON culture, were seeded in a sterile non-treated polystyrene 96-well plate (Corning) and incubated for 24 h at 37 °C without agitation. […] Evaluation of biofilm biomass was performed using a crystal violet assay as described above (Section 4.8). Experiments were performed two-four times.
# [4] = tested on: P. aeruginosa ATCC 25668, mucoid strain; assay: as above; settings: for mean decrement in biomass of pre-formed biofilm: 1 h treatment of 24 h old biofilm
# Experimental: as §1
# [5] = tested on: P. aeruginosa ATCC 25668; assay: CFU assay of medium over treated 24 h old biofilm; settings: for mean CFUs/mL decrement vs untreated control: 1 MIC, 1 h; for living bacterial cells in the medium, Mean ± SEM: 1 h treatment of 24 h-old biofilm with 1 MIC (2.2 μM), four experiments, control 2.67 ± 2.67 × 10^15
# [6] = tested on: P. aeruginosa ATCC 27853 and ATCC 25668 strains; assay: Growth curves with sub-MIC concentrations; settings: growth curves 14 h, OD600, AUC vs untreated; both strains; 1 MIC = 2.2 μM
# Experimental: Microbial suspensions in LB medium (positive controls) and wells with LB medium only (negative controls) were followed in parallel. Plates were incubated at 37 °C with agitation (300 rpm), and the absorbance was measured every 2 h for 14 h at 600 nm. For each time point, a ΔOD600 was determined by subtracting the OD600 recorded at time 0 from those obtained at the different time-points. To establish the peptide concentration not inhibiting bacterial growth, for each treatment, the Area Under the Curve (AUC) was calculated and compared to that of untreated controls.
# Supplementary Figure S3. Growth curves of P. aeruginosa treated with of L-Q 53 CecB and D-Q 53 CecB peptides at sub-MIC concentrations. ATCC 27853 strain treated with (A) L-Q 53 CecB and (B) D-Q 53 CecB. ATCC 25668 strain treated with (C) L-Q 53 CecB and (D) D-Q 53 CecB. Bacteria treated with 1 MIC L- or D- Q53 CecB peptides and untreated bacteria represent positive and negative controls, respectively. One-w ay ANOVA followed by post-h oc Dunnett’s tests […]
# samples and negative controls [A TCC 27853: (A) F4, 10 = 257.8, p < 0.0001; 1/2 MIC L-Q 53 CecB vs negative controls:
# Dunnett’s test p > 0.05, ns; (B) F 4,10 = 256.9, p < 0.0001; 1/4 MIC D-Q 53 CecB vs negative controls: Dunnett’s test p > 0.05, […]
# = 43.58, p < 0.0001; 1/4 MIC D-Q 53 CecB vs negative controls: Dunnett’s test p > 0.05, ns]. […]
Molecule,red/green (dead/total) cell ratio vs untreated controls [1],expression level of fimX [2],expression level of lasI [2],expression level of rpoS [2],expression of algD [2],expression of pelA [2],transcription of pslA [2],"reduction of pre-formed biofilm biomass at all tested concentrations ([3]; 1 h, L-Q53 CecB 1/2 to 8 MIC, tobramycin 1 to 8 MIC)","reduction of pre-formed biofilm biomass ([4]; 4 MIC, 1 h, single sample)","reduction of pre-formed biofilm biomass at all tested concentrations ([4]; 1 h, L-Q53 CecB 1/2 to 8 MIC (except 4 MIC), tobramycin 1 to 8 MIC)",mean CFUs/mL decrement vs untreated control [5],"living bacterial cells in the medium, Mean ± SEM [5]",sub-MIC concentration not inhibiting bacterial growth [6],mean decrement in biomass of pre-formed biofilm ([3]; 1/2 MIC (1.1 μM)),"reduction of pre-formed biofilm ([3]; 1/4 MIC (0.55 μM), 1 h)",mean decrement in biomass of pre-formed biofilm ([3]; 8 MIC (17.6 μM)),mean decrement in biomass of pre-formed biofilm ([4]; 1/2 MIC (1.1 μM)),"reduction of pre-formed biofilm ([4]; 1/4 MIC (0.55 μM), 1 h)",mean decrement in biomass of pre-formed biofilm ([4]; 8 MIC (17.6 μM))
RWKIFKKIEKMGRNIRDGIVKAGPAIQVLGSAKAI-NH2 [L-Q53 CecB],Significant increments,not significantly different,did not significantly alter,did not significantly alter,None of the analyzed genes were altered,None of the analyzed genes were altered,did not affect,did not significantly reduce biofilm biomass,significant biofilm biomass decrements,did not significantly reduce biofilm biomass,10 orders of magnitude,2.89 ± 2.38 × 10^5 CFUs/mL,1/2,–,–,–,–,–,–
CC[C@@H](C)[C@@H](NC(=O)[C@@H](C)NC(=O)[C@@H](CCCCN)NC(=O)[C@@H](C)NC(=O)[C@@H](CO)NC(=O)CNC(=O)[C@@H](CC(C)C)NC(=O)[C@H](NC(=O)[C@@H](CCC(N)=O)NC(=O)[C@H](NC(=O)[C@@H](C)NC(=O)[C@H]1CCCN1C(=O)CNC(=O)[C@@H](C)NC(=O)[C@@H](CCCCN)NC(=O)[C@H](NC(=O)[C@H](NC(=O)CNC(=O)[C@@H](CC(=O)O)NC(=O)[C@@H](CCCNC(=N)N)NC(=O)[C@H](NC(=O)[C@@H](CC(N)=O)NC(=O)[C@@H](CCCNC(=N)N)NC(=O)CNC(=O)[C@@H](CCSC)NC(=O)[C@@H](CCCCN)NC(=O)[C@@H](CCC(=O)O)NC(=O)[C@H](NC(=O)[C@@H](CCCCN)NC(=O)[C@@H](CCCCN)NC(=O)[C@@H](Cc1ccccc1)NC(=O)[C@H](NC(=O)[C@@H](CCCCN)NC(=O)[C@@H](Cc1c[nH]c2ccccc12)NC(=O)[C@H](N)CCCNC(=N)N)[C@H](C)CC)[C@H](C)CC)[C@H](C)CC)[C@H](C)CC)C(C)C)[C@H](C)CC)C(C)C)C(N)=O [D-Q53 CecB] (H-[dR][dW][dK][dI][dF][dK][dK][dI][dE][dK][dM]G[dR][dN][dI][dR][dD]G[dI][dV][dK][dA]G[dP][dA][dI][dQ][dV][dL]G[dS][dA][dK][dA][dI]-NH2; N-terminus and C-terminus assumed),Significant increments,not significantly different,did not significantly alter,did not significantly alter,significantly lower,significantly lower,did not affect,–,–,–,7 orders of magnitude,6.70 ± 6.6 × 10^8 CFUs/mL,1/4,49%,lost its ability to reduce pre-formed biofilms,64%,38%,lost its ability to reduce pre-formed biofilms,52%
